# Test results published in patent publication US11572399B2, “Long-acting GIP peptide analogues” (University of Copenhagen, priority 2017, dated 2023).
# Numbered stars: 1 amine (or outer) side, 2 acyl side, 3 side chain; on linkers, the order of the positions; unused ones are H or OH. Side chains are listed from the residue outwards. Peptide text beside a SMILES is read from it. * marks the point of attachment. γGlu = O=C(O)[C@H](CCC(=O)[*:2])N[*:1]; Palmitoyl = CCCCCCCCCCCCCCCC(=O)*; βAla = NCCC(=O)O
# Tests used:
# [1] = Solubility of linker analogues; type: physicochemical; conditions: read-out: Solubility, obtainable concentration
# human GIP receptor [2] = molecular target: T1, human GIP receptor (Homo sapiens, UniProt P48546); test: cAMP accumulation assay, antagonism of a GIP-mediated cAMP response (50-80% of max); type: cell-based; conditions: for Fold change from GIP(3-30)NH2 (increase in potency): Table 5
# T1 construct: host or cells: COS-7, transient transfection (calcium phosphate), cDNA in pCMV-Script
# T1 sequence (P48546 22-466): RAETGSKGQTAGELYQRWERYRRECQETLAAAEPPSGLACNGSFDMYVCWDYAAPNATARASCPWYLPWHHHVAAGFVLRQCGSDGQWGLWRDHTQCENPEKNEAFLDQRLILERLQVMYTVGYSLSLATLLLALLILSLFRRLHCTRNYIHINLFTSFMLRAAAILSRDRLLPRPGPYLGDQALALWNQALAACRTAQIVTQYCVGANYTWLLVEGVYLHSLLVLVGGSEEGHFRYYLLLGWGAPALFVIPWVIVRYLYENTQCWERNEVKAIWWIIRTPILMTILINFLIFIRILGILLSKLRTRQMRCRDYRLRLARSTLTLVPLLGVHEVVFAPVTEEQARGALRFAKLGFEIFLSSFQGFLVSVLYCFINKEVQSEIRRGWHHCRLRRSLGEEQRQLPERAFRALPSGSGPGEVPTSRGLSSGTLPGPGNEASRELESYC
# Procedure: The day after, the cells were washed twice with Hepes buffered saline (HBS) buffer and incubated with HBS and 1 mM 3-isobutyl-1-methylxanthine (IBMX) for 30 min at 37° C. […] The HitHunter™ cAMP XS assay (DiscoveRx) was carried out according to the manufacturer's instructions.
# human GIP receptor [3] = molecular target: T1, human GIP receptor; test: 125I-human GIP competition binding assay, in the presence and absence of 2% HSA;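 note: nonspecific binding taken as radioligand bound to untransfected cells, IC50 obtained from nonlinear regression fits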
# human GIP receptor [4] = molecular target: T1, human GIP receptor; test: cAMP accumulation assay, agonism (ligand alone); type: cell-based; conditions: COS-7, intrinsic cAMP activity; COS-7 cells; Table 1
# [5] = Elimination half-life (T1/2) estimated in pigs, subcutaneous, RIA; type: in vivo; conditions: pig
# Procedure: LYH/LYD strain pigs or mini-pigs were housed in the animal facility at the Faculty of Health and Medical Sciences.
# A pig was subcutaneously administered one of the lipidated GIP(3-30)NH2 analogs (compound AT117) (1-10 nmol/kg, total volume 2-6 mL) after which 10-18 blood samples were collected before and up to 57 hours post subcutaneous administration) from a central venous catheter. The catheter was flushed with saline and heparin between samples. Blood was collected into cold EDTA tubes, centrifuged and plasma was kept at −20° C. pending analyses. When experiments are completed, the animals will be killed.
# Concentrations of the lipidated GIP(3-30)NH2 or GIP(5-30)NH2 analogues in blood samples from pigs were analysed by RIA. Analogues' immunoreactivity was determined using antiserum Ab95234, Ab95235, Ab95236, a polyclonal in-house antibody raised in rabbits specific for either the mid region of GIP(1-30)NH2 or amidated C-terminus of GIP(3-30)NH2.
SMILES,solubility [1] [µM],Fold change from GIP(3-30)NH2 (increase in potency) (human GIP receptor [2]) [fold],"IC50 (human GIP receptor [3]; 0.1% casein, no HSA, Table 3b, read-out: Binding logIC50 0.1% casein (converted)) [nM]","IC50 (human GIP receptor [3]; 2% HSA, Table 3b, read-out: Binding logIC50 2% HSA (converted)) [nM]","IC50 (human GIP receptor [3]; Table 3b, initial data, read-out: Binding IC50) [nM]","IC50 (human GIP receptor [3]; binding in presence of 2% HSA, read-out: logIC50 2% HSA (converted)) [nM]","Binding fold (paired) (human GIP receptor [3]; fold decrease in affinity compared to GIP(3-30)NH2, Table 3b) [fold]","IC50 (human GIP receptor [3]; heterologous competition binding, transiently transfected COS-7 cells expressing the human GIP receptor, read-out: Binding) [nM]","Fold change in affinity, IC50 (plus HSA)/IC50 (minus HSA) (human GIP receptor [3]; presence vs absence of 2% HSA, proxy for albumin binding) [fold]",Emax (human GIP receptor [4]) [%],"cAMP - antagonisme fold (paired) (human GIP receptor [2]; fold vs GIP(3-30)NH2, Table 3b) [fold]","IC50 (human GIP receptor [2]; transiently transfected COS-7 cells, Table 1 and text, read-out: cAMP antagonism nM (IC50, antagonistic potency)) [nM]","half-life ([5]; plasma, sc, pigs, subcutaneous 1-10 nmol/kg) [h]",T½ ([5]; subcutaneous) [h]
"CCCCCCCCCCCCCCCC(=O)N[C@@H](CCC(=O)NCCCC[C@H](NC(=O)[C@@H](NC(=O)[C@H](CCCCN)NC(=O)[C@H](CC(=O)O)NC(=O)[C@H](CCSC)NC(=O)[C@H](C)NC(=O)[C@@H](NC(=O)[C@H](CO)NC(=O)[C@H](Cc1ccc(O)cc1)NC(=O)[C@H](CC(=O)O)NC(=O)[C@H](CO)NC(=O)[C@@H](NC(=O)[C@H](Cc1ccccc1)NC(=O)[C@@H](NC(=O)CNC(=O)[C@@H](N)CCC(=O)O)[C@@H](C)O)[C@@H](C)CC)[C@@H](C)CC)[C@@H](C)CC)C(=O)N[C@@H](CCC(N)=O)C(=O)N[C@@H](CCC(N)=O)C(=O)N[C@@H](CC(=O)O)C(=O)N[C@@H](Cc1ccccc1)C(=O)N[C@H](C(=O)N[C@@H](CC(N)=O)C(=O)N[C@@H](Cc1c[nH]c2ccccc12)C(=O)N[C@@H](CC(C)C)C(=O)N[C@@H](CC(C)C)C(=O)N[C@@H](C)C(=O)N[C@@H](CCC(N)=O)C(=O)N[C@@H](CCCCN)C(N)=O)C(C)C)C(=O)O [AT164, [hGIP(3-30)NH2[H18K]-C16/18+y-glutamic acid]] (H-EGTFISDYSIAMDKIK([γGlu-Palmitoyl])QQDFVNWLLAQK-NH2; N-terminus assumed)",≥ 200,6.3,–,–,–,–,–,–,–,–,–,–,–,–
"CCCCCCCCCCCCCCCC(=O)NCCCC[C@H](NC(=O)[C@@H](NC(=O)[C@H](CCCCN)NC(=O)[C@H](CC(=O)O)NC(=O)[C@H](CCSC)NC(=O)[C@H](C)NC(=O)[C@@H](NC(=O)[C@H](CO)NC(=O)[C@H](Cc1ccc(O)cc1)NC(=O)[C@H](CC(=O)O)NC(=O)[C@H](CO)NC(=O)[C@@H](NC(=O)[C@H](Cc1ccccc1)NC(=O)[C@@H](NC(=O)CNC(=O)[C@@H](N)CCC(=O)O)[C@@H](C)O)[C@@H](C)CC)[C@@H](C)CC)[C@@H](C)CC)C(=O)N[C@@H](CCC(N)=O)C(=O)N[C@@H](CCC(N)=O)C(=O)N[C@@H](CC(=O)O)C(=O)N[C@@H](Cc1ccccc1)C(=O)N[C@H](C(=O)N[C@@H](CC(N)=O)C(=O)N[C@@H](Cc1c[nH]c2ccccc12)C(=O)N[C@@H](CC(C)C)C(=O)N[C@@H](CC(C)C)C(=O)N[C@@H](C)C(=O)N[C@@H](CCC(N)=O)C(=O)N[C@@H](CCCCN)C(N)=O)C(C)C [AT117, [hGIP(3-30)NH2[H18K]-C16/18]] (H-EGTFISDYSIAMDKIK(Palmitoyl)QQDFVNWLLAQK-NH2; N-terminus assumed)",–,–,110,1730,292,1730,12,292,15.7,0,2.3,15,8,8
"CCCCCCCCCCCCCCCC(=O)NCCC(=O)NCCCC[C@H](NC(=O)[C@@H](NC(=O)[C@H](CCCCN)NC(=O)[C@H](CC(=O)O)NC(=O)[C@H](CCSC)NC(=O)[C@H](C)NC(=O)[C@@H](NC(=O)[C@H](CO)NC(=O)[C@H](Cc1ccc(O)cc1)NC(=O)[C@H](CC(=O)O)NC(=O)[C@H](CO)NC(=O)[C@@H](NC(=O)[C@H](Cc1ccccc1)NC(=O)[C@@H](NC(=O)CNC(=O)[C@@H](N)CCC(=O)O)[C@@H](C)O)[C@@H](C)CC)[C@@H](C)CC)[C@@H](C)CC)C(=O)N[C@@H](CCC(N)=O)C(=O)N[C@@H](CCC(N)=O)C(=O)N[C@@H](CC(=O)O)C(=O)N[C@@H](Cc1ccccc1)C(=O)N[C@H](C(=O)N[C@@H](CC(N)=O)C(=O)N[C@@H](Cc1c[nH]c2ccccc12)C(=O)N[C@@H](CC(C)C)C(=O)N[C@@H](CC(C)C)C(=O)N[C@@H](C)C(=O)N[C@@H](CCC(N)=O)C(=O)N[C@@H](CCCCN)C(N)=O)C(C)C [AT166, [hGIP(3-30)NH2[H18K]-C16/18+β-alanine]] (H-EGTFISDYSIAMDKIK([βAla-Palmitoyl])QQDFVNWLLAQK-NH2; N-terminus assumed)",≤ 63.2,2.9,–,–,–,–,–,–,–,–,–,–,–,–
